Patent publication US7399607B2, “Fluorescence polarization assays for determining clostridial toxin activity” (priority 2004, dated 2008)

Tested on: BoNT/A
Details: cited from earlier work

Substance	Relative Rate
SNKTRIDEAAQRATKML [Peptide N10A]	0.06
SNKTRIDEANARATKML [Peptide Q11A]	0.19
SNKTRIDEANBRATKML [Peptide Q11B]	0.25
SNKTRIDEANNRATKML [Peptide Q11N]	0.66
SNKTRIDEANQRABKML [Peptide T14B]	1.20
SNKTRIDEANQRASKML [Peptide T14S]	0.26
SNKTRIDEANQRATAML [Peptide K15A]	0.12
SNKTRIDEANQRATK [[1-15]]	0.03
SNKTRIDEANQRATKAL [Peptide M16A]	0.38
SNKTRIDEANQRATKM [[1-16]]	1.17
SNKTRIDEANQRATKML [[1-17]]	1.00
SNKTRIDEANQRATKXL [Peptide M16X]	1.20
SNKTRIDEANQRBTKML [Peptide A13B]	0.79
SNKTRIDEBNQRATKML [Peptide A9B]	0.38
SNKTRIDQANQRATKML [Peptide E8Q]	2.08
SNKTRINEANQRATKML [Peptide D7N]	0.23

Tested on: BoNT/A
Type: biochemical
Details: not given

Substance	depolarization during proteolysis
GFP-SNAP25(134-206)-His6-C-Alexa Fluor® 594	approximately 20 mP
